The values that follow come from paper PMC9392260 (Journal of Inflammation Research, 2022).

Common to all, as to assay type: biochemical
For one assay, the target named is ACE2 (Homo sapiens, UniProt Q9BYF1). The assay can be described thus: fluorescent ACE2 inhibitor screening kit.
The target in assay [1] is T1, COX-2 (Homo sapiens, UniProt P35354).
T1 sequence (P35354 18-604): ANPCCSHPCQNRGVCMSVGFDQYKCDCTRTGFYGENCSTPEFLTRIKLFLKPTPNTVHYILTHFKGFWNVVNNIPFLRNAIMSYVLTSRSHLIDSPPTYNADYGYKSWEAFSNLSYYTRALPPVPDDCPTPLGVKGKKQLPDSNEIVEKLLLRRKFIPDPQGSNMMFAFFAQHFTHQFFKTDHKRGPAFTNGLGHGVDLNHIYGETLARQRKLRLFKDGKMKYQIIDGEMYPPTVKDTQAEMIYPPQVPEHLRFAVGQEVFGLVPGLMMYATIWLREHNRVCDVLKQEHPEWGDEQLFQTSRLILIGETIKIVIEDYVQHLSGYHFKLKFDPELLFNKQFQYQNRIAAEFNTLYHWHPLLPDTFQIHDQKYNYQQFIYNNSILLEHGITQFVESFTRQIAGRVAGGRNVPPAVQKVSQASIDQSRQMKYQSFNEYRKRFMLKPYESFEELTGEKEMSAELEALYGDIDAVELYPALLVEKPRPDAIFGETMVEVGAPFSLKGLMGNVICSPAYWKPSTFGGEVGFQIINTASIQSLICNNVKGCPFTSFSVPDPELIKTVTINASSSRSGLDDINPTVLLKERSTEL
The assay can be described thus: fluorescent COX-2 inhibitor screening kit.

For assay [2], the target named is T1, COX-2. As to the kind of experiment: fluorescent COX-2 inhibitor screening kit. The source holds these as a separate data set.

Where two headings read alike, the source gives them in different places.

The term IC50 denotes the concentration at which inhibition is half-maximal. A lower IC50 goes with greater potency in that assay.

Chain of ACE2 (Q9BYF1 18-805): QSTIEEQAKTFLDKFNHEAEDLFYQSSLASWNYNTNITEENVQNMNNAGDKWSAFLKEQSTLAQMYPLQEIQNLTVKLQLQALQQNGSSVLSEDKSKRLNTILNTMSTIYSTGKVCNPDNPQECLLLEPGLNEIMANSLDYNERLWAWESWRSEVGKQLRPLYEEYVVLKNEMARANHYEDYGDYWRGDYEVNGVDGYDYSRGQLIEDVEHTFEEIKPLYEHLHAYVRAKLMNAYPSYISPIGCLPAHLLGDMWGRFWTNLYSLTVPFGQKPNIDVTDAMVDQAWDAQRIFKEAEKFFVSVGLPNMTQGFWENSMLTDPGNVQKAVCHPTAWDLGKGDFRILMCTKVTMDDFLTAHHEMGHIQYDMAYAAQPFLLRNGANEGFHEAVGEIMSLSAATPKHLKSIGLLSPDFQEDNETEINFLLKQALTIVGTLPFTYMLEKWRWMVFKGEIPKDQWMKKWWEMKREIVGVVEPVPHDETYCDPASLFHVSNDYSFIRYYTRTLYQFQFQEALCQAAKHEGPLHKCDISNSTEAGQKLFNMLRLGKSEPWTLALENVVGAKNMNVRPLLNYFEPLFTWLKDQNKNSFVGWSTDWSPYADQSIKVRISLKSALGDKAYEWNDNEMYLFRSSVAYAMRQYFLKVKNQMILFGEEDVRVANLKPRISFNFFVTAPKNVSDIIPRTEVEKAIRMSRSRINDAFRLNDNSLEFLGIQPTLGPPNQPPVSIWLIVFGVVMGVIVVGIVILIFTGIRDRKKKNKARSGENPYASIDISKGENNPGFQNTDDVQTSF

As to `O=c1c(O[C@@H]2O[C@H](CO)[C@@H](O)[C@H](O)[C@H]2O)c(-c2ccc(O)c(O)c2)oc2cc(O)cc(O)c12` [compound 5, Quercetin 3-O-glucoside], at ACE2, half-maximal inhibition (IC50) was put at 135 ± 6.54 µM. For the compound `O=c1c(O)c(-c2ccc(O)cc2)oc2cc(O)cc(O)c12` [compound 11, Kaempferol], 0.36 ± 0.02 µM corresponded to half-maximal inhibition at COX-2 [1] (IC50). Take `COc1cc([C@@H]2c3cc4c(cc3[C@H](O)[C@H]3COC(=O)[C@H]23)OCO4)cc(OC)c1OC` [compound 12, Podophyllotoxin]: at COX-2 [2], the concentration for half-maximal inhibition (IC50) amounted to 10.5 ± 0.61 µM.
